Measurements from patent publication US9255101B2 (BIOPROJECT, priority 2012, dated 2016).
Counter-ions that a name gives are not always drawn.

What was measured:
human H4 receptor [1] = target: T1, human H4 receptor (Homo sapiens, UniProt Q9H3N8); experiment: biochemical
human H4 receptor [2] = target: T1, human H4 receptor; experiment: biochemical; remark: listed apart in the source
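Throughout, for IC50: membranes from SH-SY5Y cells with stable human H4 receptor expression, incubated with GDP 10 µM, radioactivity retained on filters counted by liquid scintillation.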
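Throughout, for Ki: radioligand displacement of a [3H]-labelled ligand from membranes of CHO cells stably expressing human H4 receptor, bound radioactivity counted on filters by liquid scintillation.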

T1 sequence (Q9H3N8 whole entry): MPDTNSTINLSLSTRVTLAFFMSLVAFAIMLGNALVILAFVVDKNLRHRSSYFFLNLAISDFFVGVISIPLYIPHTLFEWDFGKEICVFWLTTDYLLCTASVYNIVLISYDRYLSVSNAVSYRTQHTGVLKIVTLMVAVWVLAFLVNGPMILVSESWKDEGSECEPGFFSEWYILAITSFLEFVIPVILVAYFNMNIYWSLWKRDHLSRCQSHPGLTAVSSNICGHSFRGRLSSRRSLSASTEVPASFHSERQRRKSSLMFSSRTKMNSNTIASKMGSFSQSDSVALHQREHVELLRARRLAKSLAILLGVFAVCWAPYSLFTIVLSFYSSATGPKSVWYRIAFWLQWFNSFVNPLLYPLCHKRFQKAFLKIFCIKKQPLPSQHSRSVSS

Compound	IC50 (human H4 receptor [1])	Ki (human H4 receptor [2])
CN1CCC(OC2c3ccccc3CCn3cc(SCc4cccs4)nc32)CC1 (centres unmarked) [Example 88, 4-(1-methylpiperidin-4-yloxy)-2-(thiophen-2-ylmethylsulfanyl)-9,10-dihydro-4H-3,10a-diaza-benzo[f]azulene oxalate]	< 1 µM	< 0.3 µM
Cc1c(-c2ccc(NC(=O)OC(C)(C)C)cc2)nc2n1CCc1ccccc1C2OC1CCN(C)CC1 (centres unmarked) [Example 130, {4-[1-methyl-4-(1-methylpiperidin-4-yloxy)-9,10-dihydro-4H-3,10a-diaza-benzo[f]azulen-2-yl]-phenyl}-carbamic acid tert-butyl ester]	< 0.03 µM	< 0.03 µM
CCCCCc1ccc(-c2cn3c(n2)C(OC2CCN(C)CC2)c2ccccc2CC3)cc1 (centres unmarked) [Example 42, 4-(1-methylpiperidin-4-yloxy)-2-(4-pentylphenyl)-9,10-dihydro-4H-3,10a-diaza-benzo[f]azulene]	< 0.03 µM	< 0.03 µM
CN1CCC(OC2c3ccccc3CCn3cc(-c4ccc(S(=O)(=O)N(C)C)cc4)nc32)CC1 (centres unmarked) [Example 29, N,N-dimethyl-4-[4-(1-methylpiperidin-4-yloxy)-9,10-dihydro-4H-3,10a-diaza-benzo[f]azulen-2-yl]-benzenesulfonamide]	< 0.3 µM	< 0.3 µM
Cc1c(-c2ccc(NC(=S)NC(C)C)cc2)nc2n1CCc1ccccc1C2OC1CCN(C)CC1 (centres unmarked) [Example 206, 1-isopropyl-3-{4-[1-methyl-4-(1-methylpiperidin-4-yloxy)-9,10-dihydro-4H-3,10a-diazabenzo[f]azulen-2-yl]-phenyl}-thiourea]	< 0.03 µM	< 0.03 µM
CN1CCC(OC2c3ccccc3CCn3cc(-c4ccc(C#N)cc4)nc32)CC1 (centres unmarked) [Example 37, 4-[4-(1-methylpiperidin-4-yloxy)-9,10-dihydro-4H-3,10a-diaza-benzo[f]azulen-2-yl]-benzonitrile]	< 0.03 µM	< 0.03 µM
Cc1c(-c2ccc(SCCN)cc2)nc2n1CCc1ccccc1C2OC1CCN(C)CC1 (centres unmarked) [Example 161, 2-{4-[1-methyl-4-(1-methylpiperidin-4-yloxy)-9,10-dihydro-4H-3,10a-diaza-benzo[f]azulen-2-yl]-phenylsulfanyl}-ethylamine oxalate]	< 0.03 µM	< 0.03 µM
CCSc1ccc(-c2cn3c(n2)C(OC2CCN(C)CC2)c2ccccc2CC3)cc1 (centres unmarked) [Example 46, 2-(4-ethylsulfanylphenyl)-4-(1-methylpiperidin-4-yloxy)-9,10-dihydro-4H-3,10a-diaza-benzo[f]azulene oxalate]	< 0.03 µM	< 0.03 µM
CN1CCC(OC2c3ccccc3CCn3cc(-c4ccc(CC#N)cc4)nc32)CC1 (centres unmarked) [Example 33, {4-[4-(1-methylpiperidin-4-yloxy)-9,10-dihydro-4H-3,10a-diaza-benzo[f]azulen-2-yl]-phenyl}-acetonitrile oxalate]	< 0.3 µM	< 0.3 µM
CN1CCC(OC2c3ccccc3CCn3cc(-c4ccc(C(=O)C(F)(F)F)cc4)nc32)CC1 (centres unmarked) [Example 31, 2,2,2-trifluoro-1-{4-[4-(1-methylpiperidin-4-yloxy)-9,10-dihydro-4H-3,10a-diaza-benzo[f]azulen-2-yl]-phenyl}-ethanone oxalate]	< 0.03 µM	< 0.3 µM
CN1CCC(OC2c3ccccc3CCn3cc(-c4ccc(F)cc4)nc32)CC1 (centres unmarked) [Example 56, 2-(4-fluorophenyl)-4-(1-methylpiperidin-4-yloxy)-9,10-dihydro-4H-3,10a-diaza-benzo[f]azulene]	< 0.03 µM	< 0.03 µM
CN1CCC(OC2c3ccccc3CCn3cc(SCCc4ccccc4)nc32)CC1 (centres unmarked) [Example 119, 4-(1-methylpiperidin-4-yloxy)-2-phenethylsulfanyl-9,10-dihydro-4H-3,10a-diaza-benzo[f]azulene]	< 0.03 µM	< 0.03 µM
CN1CCC(OC2c3ccccc3CCn3cc(CCc4ccccc4)nc32)CC1 (centres unmarked) [Example 38, 4-(1-methylpiperidin-4-yloxy)-2-phenethyl-9,10-dihydro-4H-3,10a-diaza-benzo[f]azulene oxalate]	< 0.03 µM	< 0.3 µM
CN1CCC(OC2c3ccccc3CCn3cc(C4=CCN(C(=O)OC(C)(C)C)CC4)nc32)CC1 (centres unmarked) [Example 74, 4-[4-(1-methylpiperidin-4-yloxy)-9,10-dihydro-4H-3,10a-diaza-benzo[f]azulen-2-yl]-3,6-dihydro-2H-pyridine-1-carboxylic acid tert-butyl ester oxalate]	< 0.3 µM	< 0.3 µM
CN1CCC(OC2c3ccccc3CCn3cc(-c4cccs4)nc32)CC1 (centres unmarked) [Example 47, 4-(1-methylpiperidin-4-yloxy)-2-thiophen-2-yl-9,10-dihydro-4H-3,10a-diaza-benzo[f]azulene oxalate]	< 0.3 µM	< 0.3 µM
CN1CCC(OC2c3ccccc3CCn3c2nc(-c2ccccc2)c3Cl)CC1 (centres unmarked) [Example 134, 1-chloro-4-(1-methylpiperidin-4-yloxy)-2-phenyl-9,10-dihydro-4H-3,10a-diaza-benzo[f]azulene]	< 0.03 µM	< 0.03 µM
Cc1c(C=CC(C)(C)C)nc2n1CCc1ccccc1C2OC1CCN(C)CC1 (centres unmarked) [Example 225, 2-(3,3-dimethyl-but-1-enyl)-1-methyl-4-(1-methylpiperidin-4-yloxy)-9,10-dihydro-4H-3,10a-diaza-benzo[f]azulene]	< 0.03 µM	< 0.03 µM

Compound	IC50 (human H4 receptor [1])	Ki (human H4 receptor [2])
C=C(C)Cc1nc2n(c1C#N)CCc1ccccc1C2OC1CCN(C)CC1 (centres unmarked) [Example 259, 2-(2-methylallyl)-4-(1-methylpiperidin-4-yloxy)-9,10-dihydro-4H-3,10a-diaza-benzo[f]azulene-1-carbonitrile]	< 0.3 µM	< 0.3 µM
CN1CCC(OC2c3ccccc3CCn3cc(-c4ccsc4)nc32)CC1 (centres unmarked) [Example 12, 4-(1-methylpiperidin-4-yloxy)-2-thiophen-3-yl-9,10-dihydro-4H-3,10a-diaza-benzo[f]azulene]	< 0.3 µM	< 0.3 µM
CN1CCC(OC2c3ccccc3CCn3cc(CCC(C)(C)C)nc32)CC1 (centres unmarked) [Example 94, 2-(3,3-dimethylbutyl)-4-(1-methylpiperidin-4-yloxy)-9,10-dihydro-4H-3,10a-diaza-benzo[f]azulene]	< 0.03 µM	< 0.03 µM
CN1CCC(OC2c3ccccc3CCn3cc(-c4ccccc4Cl)nc32)CC1 (single isomer, unassigned) [Example 54B, 2-(2-chlorophenyl)-4-(1-methylpiperidin-4-yloxy)-9,10-dihydro-4H-3,10a-diaza-benzo[f]azulene]	< 0.03 µM	< 0.3 µM
CN1CCC(OC2c3ccccc3CCn3cc(-c4ccc(C(F)F)cc4)nc32)CC1 (centres unmarked) [Example 69, 2-(4-difluoromethylphenyl)-4-(1-methylpiperidin-4-yloxy)-9,10-dihydro-4H-3,10a-diaza-benzo[f]azulene]	< 0.3 µM	< 0.03 µM
CN1CCC(OC2c3ccccc3CCn3cc(C#CCNC(=O)OC(C)(C)C)nc32)CC1 (centres unmarked) [Example 72, {3-[4-(1-methylpiperidin-4-yloxy)-9,10-dihydro-4H-3,10a-diaza-benzo[f]azulen-2-yl]-prop-2-ynyl}-carbamic acid tert-butyl ester]	< 0.03 µM	< 0.03 µM
C=CCc1cn2c(n1)C(OC1CCN(C)CC1)c1ccccc1CC2 (centres unmarked) [Example 30, 2-allyl-4-(1-methylpiperidin-4-yloxy)-9,10-dihydro-4H-3,10a-diaza-benzo[f]azulene oxalate]	< 0.3 µM	< 0.3 µM
Cc1ccc(-c2cn3c(n2)C(OC2CCN(C)CC2)c2ccccc2CC3)cc1 (centres unmarked) [Example 5, 4-(1-methylpiperidin-4-yloxy)-2-p-tolyl-9,10-dihydro-4H-3,10a-diaza-benzo[f]azulene]	< 0.3 µM	< 0.03 µM
CN1CCC(OC2c3ccccc3CCn3cc(-c4ccc(C(=O)N5CCC(=O)CC5)cc4)nc32)CC1 (centres unmarked) [Example 215, 1-{4-[4-(1-methylpiperidin-4-yloxy)-9,10-dihydro-4H-3,10a-diaza-benzo[f]azulen-2-yl]-benzoyl}-piperidin-4-one]	–	< 0.3 µM
CN1CCC(OC2c3ccccc3CCn3cc(-c4ccccc4CO)nc32)CC1 (centres unmarked) [Example 179, {2-[4-(1-methylpiperidin-4-yloxy)-9,10-dihydro-4H-3,10a-diaza-benzo[f]azulen-2-yl]-phenyl}-methanol oxalate]	–	< 0.3 µM
Cc1c(-c2ccc(C3CCN(C(=O)OC(C)(C)C)CC3)cc2)nc2n1CCc1ccccc1C2OC1CCN(C)CC1 (centres unmarked) [Example 177, 4-{4-[1-methyl-4-(1-methylpiperidin-4-yloxy)-9,10-dihydro-4H-3,10a-diaza-benzo[f]azulen-2-yl]-phenyl}-piperidine-1-carboxylic acid tert-butyl ester]	–	< 0.03 µM
CN1CCC(OC2c3ccccc3CCn3c2nc(-c2ccccc2Cl)c3C#N)CC1 (centres unmarked) [Example 272, 2-(2-chlorophenyl)-4-(1-methyl-piperidin-4-yloxy)-9,10-dihydro-4H-3,10a-diaza-benzo[f]azulene-1-carbonitrile oxalate]	–	< 0.03 µM
Cc1c(-c2ccc(C3=CCCCC3)cc2)nc2n1CCc1ccccc1C2OC1CCN(C)CC1 (centres unmarked) [Example 170, 2-(4-cyclohex-1-enylphenyl)-1-methyl-4-(1-methylpiperidin-4-yloxy)-9,10-dihydro-4H-3,10a-diaza-benzo[f]azulene]	–	< 0.03 µM
CN1CCC(OC2c3ccccc3CCn3cc(-c4ccc(CCNC(=O)OC(C)(C)C)cc4)nc32)CC1 (centres unmarked) [Example 196]	–	< 0.3 µM
Cc1c(-c2ccc(N)cc2)nc2n1CCc1ccccc1C2OC1CCN(C)CC1 (centres unmarked) [Example 173, 4-[1-methyl-4-(1-methylpiperidin-4-yloxy)-9,10-dihydro-4H-3,10a-diaza-benzo[f]azulen-2-yl]-phenylamine]	–	< 0.3 µM
CN(C)CCOC1c2ccccc2CCn2c1nc(I)c2I (centres unmarked) [Example 264, [2-(1,2-diiodo-9,10-dihydro-4H-3,10a-diaza-benzo[f]azulen-4-yloxy)-ethyl]-dimethyl-amine]	–	< 1 µM
CN1CCC(OC2c3ccccc3CCn3cc(-c4ccc(S(C)(=O)=O)cc4)nc32)CC1 (centres unmarked) [Example 17, 2-(4-methanesulfonylphenyl)-4-(1-methylpiperidin-4-yloxy)-9,10-dihydro-4H-3,10a-diaza-benzo[f]azulene]	–	< 0.3 µM
